Like-named read-outs stand apart in the source and are kept apart here.
What was measured:
oral bacteria = assay: Alamar Blue evaluation of antibacterial efficacy in the presence of the anionic surfactant SLS; assay type: cell-based, human saliva; conditions: 10 mg active + 20 mg of 30 weight % SLS solution + 5 ml oral bacteria solution, 37° C., 1 hour after addition of Alamar Blue dye, color change from blue to red indicates live bacteria
Description: In particular, the antibacterial efficacy of a CPC—ZnCl2 complex was compared to ZnCl2 and CPC individually, in the presence of SLS, as follows: human saliva was collected and diluted three times with deionized water, centrifuged, and decanted to yield a translucent solution of oral bacteria. […] A negative control was also prepared adding 20 mg (+/−0.9 mg) of the 30 weight % SLS aqueous solution and 5 ml of the prepared oral bacteria solution to deionized water instead of the antibacterial ingredient. The samples were then placed in a 37° C. oven and shaken at 100 RPM for 30 minutes. 200 μL of Alamar Blue dye was then added to each sample and placed back in the 37° C. oven and shaken at 100 RPM. The samples were then monitored every 30 minutes, with the results 1 hour after addition of the dye recorded in Table 1. Under an Alamar Blue assay, a color change from blue to red indicates the presence of live bacteria.

SMILES	Color of Solution (oral bacteria)	Color of Solution (oral bacteria; listed as CPC—ZnCl2 complex)	solubility in water (0.1 weight % solution, room temperature (23-24° C.))	solubility in water (0.5 weight % solution, room temperature (23-24° C.))	solubility in water (1.0 weight % solution, physiological temperature (36-37° C.))	solubility in water (1.0 weight % solution, room temperature (23-24° C.), after 24 hours of aging)	solubility in water (10 weight % solution, physiological temperature (36-37° C.))	solubility in water (10.0 weight % solution, room temperature (23-24° C.), after 24 hours of aging)	reduction in solubility compared to the CPC and ZnCl2 reactants separately (water)
CCCCCCCCCCCCCCCC[n+]1ccccc1 [CPC, cetylpyridinium chloride]	pink and Pink								
CCCCCCCCCCCCCCCC[n+]1ccccc1.CCCCCCCCCCCCCCCC[n+]1ccccc1.[Cl][Zn-2]([Cl])([Cl])[Cl] [CPC-ZnCl2 complex]	Blue	blue	soluble	soluble	soluble	undissolved	not fully soluble	undissolved	≥ 25 fold
[Cl-].[Cl-].[Zn+2] [ZnCl2, zinc chloride]	Purple								

Reference: patent US11690833B2, “Personal care compositions” (priority 2017, dated 2023)
